Where “and” joins values, the source holds several entries; their conditions need not be identical. Identical values can stand only once. Entries after “also recorded” stand apart in the source; their conditions may differ. Like-named read-outs stand apart in the source and are kept apart here.
Experiments:
[1] = system: Chinese hamster ovary (CHO) cells; experiment: In vitro chemotherapeutic activity, colony forming assay, CHO cells; format: cell-based; settings: at the 50% survival level; 37° C. for 24 hours
Method: (§1) 4.1. In vitro chemotherapeutic activity. Chinese hamster ovary (CHO) and human colon carcinoma (HCT-116) cells were treated with different concentrations of taxol, taxoltere metro, or taxoltere p-nip at 37° C. for 24 hours. Cell survival was evaluated by the colony forming assay.

[2] = system: human colon carcinoma (HCT-116) cells; experiment: In vitro chemotherapeutic activity, colony forming assay, HCT-116 cells; format: cell-based; settings: at the 1% survival level; 37° C. for 24 hours
Method: as §1

[3] = system: CHO cells; experiment: In vitro chemotherapeutic radiosensitization, CHO cells; format: cell-based, Chinese hamster; settings: for sensitizer enhancement ratio (SER): irradiated after two hours incubation; for radiosensitization of CHO cells (in words): different radiation doses
[4] = system: HCT-116 cells; experiment: In vitro chemotherapeutic radiosensitization, HCT-116 cells; format: cell-based, human; settings: for sensitizer enhancement ratio (SER): irradiated after two hours incubation; for radiosensitization of HCT-116 cells (in words): different radiation doses
[5] = system: mouse mammary adenocarcinoma (MTG-B); experiment: In vivo chemotherapeutic activity in MTG-B tumor bearing mice; parameters: species or system C3H/Hej mice
[6] = system: MTG-B tumor; format: in vivo, C3H/Hej mice
[7] = system: C3H/HeJ mice; experiment: In vivo drug toxicity (acute toxicity); settings: for LD50/5: C3H/HeJ mice
[8] = system: C3H/HeJ mice; settings: mouse, in vivo
[9] = In vivo drug toxicity (acute toxicity); settings: C3H/HeJ, mouse, in vivo, ip
[10] = system: MTG-B mammary tumors; parameters: species or system mice; settings: mouse, in vivo, ip

Question: Which “times more effective than taxol in killing CHO cells” value [1] does the source give for “N-debenzoyl-N-(t-butylcarbamoyl)-7-(metronidazoleoxycarbonyl) taxol [taxoltere metro]” here?
Answer: Its value is “about 15 times”.

Question: What about the “times more effective than taxol in killing HCT-116 cells” value [2] of the same compound?
Answer: The value was “about 10 times”.

Question: What about the “sensitizer enhancement ratio (SER)” value ([3]; 100 nM) of the same compound?
Answer: Its value is 2.3.

Question: And the “radiosensitization of CHO cells (in words)” value [3]?
Answer: Its value is “strongly radiosensitize”.

Question: And the “sensitizer enhancement ratio (SER)” value ([4]; 10 nM)?
Answer: Its value is 1.2.

Question: And the “radiosensitization of HCT-116 cells (in words)” value [4]?
Answer: Its value is “strongly radiosensitize”.

Question: What about the “increase of survival time / life span” value ([5]; mouse, in vivo) of the same compound?
Answer: The value was 123%.

Question: What about the survival time ([5]; mouse, in vivo) of the same compound?
Answer: Its survival time is 29 days.

Question: And the “times more effective than taxol under equitoxic conditions” value ([5]; mouse, in vivo)?
Answer: Its value is 4 times.

Question: And the “tumor doubling times (in words)” value ([5]; mouse, in vivo)?
Answer: Its value is “again greatly extended”.

Question: And the “tumor doubling time (TDT)” value ([6]; mouse, in vivo, ip)?
Answer: The value was 20.5 days and 29.5 days.

Question: And the “Severe toxic symptoms (constriction of pupils, rough hair)” value ([7]; 24 hours after drug administration, high drug dose levels)?
Answer: The value was “not”.

Question: What about the LD50/5 ([7]; i.p.) of the same compound?
Answer: The LD50/5 was 249.67 mg/kg.

Question: Which “radiosensitization of CHO cells (in words)” value [3] does the source give for `CC(=O)O[C@H]1C(=O)[C@@]2(C)[C@H]([C@H](OC(=O)c3ccccc3)[C@]3(O)C[C@H](OC(=O)[C@H](O)[C@@H](NC(=O)c4ccccc4)c4ccccc4)C(C)=C1C3(C)C)[C@]1(OC(C)=O)CO[C@@H]1C[C@@H]2O` [taxol, reference compound] here?
Answer: Its value is “does not”.

Question: And the “radiosensitization of HCT-116 cells (in words)” value [4]?
Answer: The value was “does not”.

Question: What about the survival time ([5]; 40% of the LD50/5 dose, MTG-B tumor-bearing mice, control 13 days) of the same compound?
Answer: Its survival time is 17 days.

Question: What about the “increase of survival time / life span” value ([5]; 40% of the LD50/5 dose, versus control 13 days) of the same compound?
Answer: The value was 31%.

Question: What about the “tumor doubling time (TDT)” value ([6]; single dose i.p., 40% of LD50/5, drug alone, control 3.5 days) of the same compound?
Answer: The value was 14.5 days.

Question: And the “tumor doubling time (TDT)” value ([6]; single dose i.p., 40% of LD50/5, plus 22 Gy Xray one day later, 22 Gy alone 8.5 days)?
Answer: The value was 19.5 days.

Question: What about the “Severe toxic symptoms (constriction of pupils, rough hair)” value [8] of the same compound?
Answer: Its value is “observed”.

Question: And the LD50 at 5 days [9]?
Answer: The LD50 at 5 days was 141 mg/kg.

Question: Which “times more effective than taxol in killing CHO cells” value [1] does the source give for “N-debenzoyl-N-(t-butylcarbamoyl)-3′-desphenyl-3′-(4-nitrophenyl) taxol [taxoltere p-nip]” here?
Answer: The value was “about 45 times”.

Question: And the “times more effective than taxol in killing HCT-116 cells” value [2]?
Answer: Its value is “about 30 times”.

Question: And the “sensitizer enhancement ratio (SER)” value ([3]; concentration not given)?
Answer: The value was 1.6.

Question: What about the “radiosensitization of CHO cells (in words)” value [3] of the same compound?
Answer: The value was “strongly radiosensitize”.

Question: And the “sensitizer enhancement ratio (SER)” value ([4]; concentration not given)?
Answer: Its value is 1.5.

Question: And the “radiosensitization of HCT-116 cells (in words)” value [4]?
Answer: The value was “strongly radiosensitize”.

Question: What about the “increase of survival time / life span” value ([5]; mouse, in vivo) of the same compound?
Answer: Its value is 1015%.

Question: And the survival time ([5]; mouse, in vivo)?
Answer: Its survival time is 145 days.

Question: What about the “times more effective than taxol under equitoxic conditions” value ([5]; mouse, in vivo) of the same compound?
Answer: Its value is 33 times.

Question: And the “tumor doubling times (in words)” value ([5]; mouse, in vivo)?
Answer: The value was “even further extended; also recorded: again greatly extended”.

Question: What about the “tumor doubling time (TDT)” value ([6]; mouse, in vivo, ip) of the same compound?
Answer: The value was 36.5 days and 65 days.

Question: And the tumor doubling time ([6]; mouse, in vivo, iv)?
Answer: The tumor doubling time was 52 days.

Question: What about the cure rate [10] of the same compound?
Answer: The cure rate was 40% and 75%.

Question: What about the LD50/5 ([7]; i.p.) of the same compound?
Answer: Its LD50/5 is 79.13 mg/kg.

Question: What about the LD50/5 ([7]; i.v.) of the same compound?
Answer: The LD50/5 was 134.16 mg/kg.

— patent US7067552B2, “Radiosensitizing taxanes and their pharmaceutical preparations” (Florida State University, priority 1995, dated 2006)
